Measured values: US20100093611A1, “COMPOUNDS AND METHODS FOR TREATING OR PREVENTING AUTOIMMUNE DISEASES” (priority 2007, published 2010)

What was measured:
[1] = tested on: IFN-α signaling pathway; test: High-Throughput Integrated Transcriptional Screening (HITS), qPCR of IFN-α signature gene set in THP-1 cells; type: cell-based, human; conditions: compound 10 μM, 100 IU/ml IFN-α 4 h, a gene inhibited by more than 50% gets its maximum score, scores added, hit if greater than 50% of maximum
Method: The unique gene expression signature of the IFN-α signaling pathway was established in THP-1 cells by comparing the gene profiles of the fully activated IFNα pathway to the basal gene expression. THP-1 cells were stimulated either with 100 IU/ml IFN-α, 100 IU/ml IFN-γ, or 10 ng/ml TNF-α to generate the activated pathway gene signatures.
In one embodiment, the compounds of Table 1 were used to identify different mechanisms of action as identified from primary screening. If a gene is inhibited by more than 50% then it receives its maximum score (all or none type of scoring).
THP-1 cells seeded at 8×10^5 cells/ml were treated with either compound (10 μM final concentration) or vehicle control (0.1% DMSO) for 30 minutes prior to a four hour stimulation with 100 IU/ml IFN-α or PBS. Plates were incubated at 37° C. in a humidified incubator. Cell lysis and RNA isolation were carried out according to the manufacturer's instructions (TurboCapture mRNA Kit, Qiagen Inc.). PCR primer pairs were designed for each of the genes identified through the global gene expression analysis using Primer 3 based method (see below for primer sequences). Each primer was evaluated for the efficient production of a single band of appropriate size in the presence of template RNA and the lack of distinct amplification products in a non-template control. Real time PCR reactions were carried out in SYBR green master mix (Quanta biosciences) on ABI9700 thermocyclers.
We used the house keeping gene, GAPDH, as the normalization control for the IFN-α gene signature set to correct the overall variability in the qPCR based HITS process. The corrected profiles were then normalized to the basal gene expression levels determined by using the vehicle only treatments. We subtracted the vehicle only control gene value from the test compound gene profiles, gene per gene (see FIG. 1).

[2] = tested on: IP-10; test: IFN-α induced IP-10 secretion from human monocytes; type: cell-based; conditions: 500 IU/ml IFN-α, 48 h (FIG. 6A)
Method: (§1) Freshly isolated monocytes were treated with 500 IU/ml IFN-α with or without indicated compounds for 48 h. Supernatants were collected and MCP-1 and IP-10 levels were analyzed by Searchlight Inc. Percentage inhibition represents inhibition of the upregulation of chemokine induced by IFN-α compared to the vehicle control. Panel A: Effect of compounds on IP-10 secretion. Panel B: Effect of compounds on MCP-1 secretion. Each bar represents the average+/−SEM of three independent experiments. Panel C: IKK2 inhibitor IV blocked IFN-α induced IP-10 protein level in vivo. Female NZBW/F1 mice were treated with either antibody (i.p. injection 30 mg/kg) or IKK2 inhibitor (45 mg/kg BID) as described in materials and methods. Adenovirus-IFN-a (1×10^10 viral particles) was administrated i.v. at time 0. Samples were collected 6 h post-stimulation, IP-10 protein level was measured by ELISA. Data representative of two experiments.
(§2) Multiple chemokines, including monocyte chemo-attractant protein-1 (MCP-1) and activated T cell chemokine interferon inducible protein 10 (IP-10) regulate leukocytes migration and infiltration into inflammated organs^34. Expression of MCP-1 and IP-10 are elevated in serum of SLE patients^34, 35 and in monocytes of healthy donors stimulated in vitro by IFN-α^36. Consequently, the effect of Apicidin 1a, IKK2 inhibitor IV, and JAK inhibitors in IP-10 and MCP-1 expression induced by IFN-α from human monocytes was examined.
(§3) For monocyte differentiation assays, human monocytes were isolated from the blood of healthy donors according to manufactory's instructions (Miltenyi Biotec Inc; Auburn Calif.). 5×10^5 freshly prepared monocytes were pre-incubated with compounds or vehicle control for 30 min. […] Cell surface protein were stained with FITC-labeled anti-CD80, PE-labeled anti-CD123, PEcy7 labeled anti-CD38, APC cy7 labeled MHC class II (all BD, San Jose, Calif.) and analyzed on a FACS Calibur flow cytometer (BD). Cytokine and chemokine levels in supernatants from monocyte differentiation assays were measured using searchlight human cytokine array (Pierce Inc, Woburn, Mass.). […]

[3] = tested on: SLE-associated gene signature as induced by SLE serum; test: SLE serum-induced IFN-α gene signature in freshly isolated monocytes (HITS qPCR); type: cell-based, human
From the text: RNA from lysed cells was examined by qPCR analysis in HITS assay. […] Each bar represents the average+/−SEM of three independent experiments using serum from different SLE patients.
Stimulation of healthy donor PBMCs with serum isolated from SLE patients induces the up-regulation of IFN-α pathway-associated genes (Interfon-induced genes, IFIGs), such as MX1^31. Furthermore, expression of IFIG correlates with disease severity and organ involvement^31, 32. To further evaluate the role of small molecular inhibitors on the type I IFN gene signature, freshly isolated monocytes stimulated with 50% lupus serum were used in HITS assays. […] Importantly, these experiments were performed with SLE serum from patients with well characterized biochemical profiles.
SLE patient and control serum were purchased from Bioreclamation (Hicksville, N.Y.). IFN-α 2a was obtained from PBL Biomedical laboratories (Piscataway, N.J.). Fresh PBMCs from healthy donor were prepared by Ficoll-hypaque fraction according to the manufactory's instruction. Cells were cultured at 2×10^5 cells/0.1 ml in 96-well flat-bottomed plates in culture medium.
To determine the effect of compounds on gene expression, compounds and vehicle controls were pre-incubated with cells for 30 min at 37° C. before stimulation with 50% lupus serum or 100 IU/ml IFN-α 2a were incubated with PBMC. After 6 h stimulation, cells were lysed in Qiagen 2XTCL lysis buffer followed by HITS analysis (see FIG. 2).

[4] = tested on: freshly isolated monocytes; test: Cytotoxicity at the concentration used in the SLE serum monocyte assay; type: cell-based, human; conditions: 1 μm
[5] = tested on: CD80, CD123 and CD38 cell surface expression on monocytes; test: IFN-α induced primary human monocyte activation/differentiation, cell surface markers by FACS; type: cell-based; conditions: 500 IU/ml IFN-α, 48 h, FACS (FIG. 5)
Method: Freshly isolated monocytes from healthy donor were pre-incubated with compounds or vehicle control for 0.5 hour before stimulation with 500 IU/ml IFN-α. Cell surface expression of CD80, CD123 and CD38 was evaluated by FACS 48 h post-stimulation. Each bar represents the average+/−SEM of three independent experiments.
Since deregulated differentiation of DCs induced by IFN-α may be a critical contributing factor in SLE^13, the impact of Apicidin 1a, IKK2 inhibitor IV, and JAK inhibitors in DC differentiation was examined. Human monocytes were stimulated with IFN-α and the expression of CD38 CD80 and CD123 differentiation markers was monitored^33.
For monocyte differentiation assays, human monocytes were isolated from the blood of healthy donors according to manufactory's instructions (Miltenyi Biotec Inc; Auburn Calif.). 5×10^5 freshly prepared monocytes were pre-incubated with compounds or vehicle control for 30 min. Cells were then incubated in RPMI 1640 medium (Invitrogen, Carlsbad, Calif.) including 10% fetal calf serum (Invitrogen) supplemented with 500 IU/ml IFN-α 2a for 48 hr. Cell surface protein were stained with FITC-labeled anti-CD80, PE-labeled anti-CD123, PEcy7 labeled anti-CD38, APC cy7 labeled MHC class II (all BD, San Jose, Calif.) and analyzed on a FACS Calibur flow cytometer (BD). Cytokine and chemokine levels in supernatants from monocyte differentiation assays were measured using searchlight human cytokine array (Pierce Inc, Woburn, Mass.). (see FIG. 5)

[6] = tested on: MCP-1; test: IFN-α induced MCP-1 secretion from human monocytes; type: cell-based; conditions: 500 IU/ml IFN-α, 48 h (FIG. 6B)
Method: as §1, §2, §3

Compound: O=C(CCCCCN1C(=O)c2cccc3cccc(c23)C1=O)NO [Compound 3, scriptaid]
- HTS Score [1]: 0.88

Compound: CC(/C=C/C(=O)NO)=C\[C@@H](C)C(=O)c1ccc(N(C)C)cc1 [Compound 4, Trichostatin A]
- HTS Score [1]: 1

Compound: CC(C)(C)c1nc2c3ccc(F)cc3c3c(=O)[nH]ccc3c2[nH]1 [Compound 7, JAK Inhibitor I]
- Expression of IP-10 induced by IFN-α [2]: block the expression of IP-10
- HTS Score [1]: 0.9
- Percentage inhibition of the six most robustly induced IFN-α signature genes induced by SLE serum ([3]; 1 μm, monocytes stimulated with 50% SLE patient serum, mean of six genes vs vehicle control): 60%
- Upregulation of the six most robustly induced IFN-α signature gene set by 50% lupus serum (in words) ([3]; freshly isolated monocytes, dose dependent (FIG. 4)): blocked the upregulation
- Cytotoxicity [4]: did not exhibit cytotoxicity
- CD38 expression [5]: dose-dependent inhibition
- CD80 expression [5]: dose-dependent inhibition
- CD123 expression [5]: dose-dependent inhibition
- MCP-1 expression induced by IFN-α [6]: restricted to the highest dose

Compound: C=CC(=O)C1=CC2C=CC=CC2C=C1 (stereo not shown) [Compound 8, JAK3 Inhibitor V]
- HTS Score [1]: 0.79

Compound: Oxamflatin [Compound 1]
- HTS Score [1]: 1
